# Assay results from patent US10898576B2, “Glucocorticoid combined with polyethylene glycol-modified interleukin 2 for treating respiratory disease” (priority 2016, dated 2021).
# Key:
# asthma mice [1] = assay: Example 6: asthma mice challenged days 9-18, local atomization vs intraperitoneal Dex, lung function and pathology; format: in vivo, BALB/c mice; settings: 40 μg Dex per mouse
# Protocol: (§1) Lung histopathology. The lungs of mice were fixed in 10% formalin, embedded in paraffin, sectioned, stained with H&E (Merck & Co, Inc) and PAS (Sigma), respectively, and examined under a 20-fold microscope.
# Lung function measurement. After being anesthetized with 2% pentobarbital sodium, the mice were subjected to respiratory provocation test with methacholine (Sigma) at 3.125 mg/ml, 6.25 mg/ml, and 12.5 mg/ml prepared in PBS, respectively. The airway resistance curve was plotted and analyzed (FinePoint NAM). The assay was performed using the BUXCO Airway Resistance and Lung Compliance System (BUXCO Electronics).
# Modeling of asthma model mice and administration. The same mice as in Example 1 were used for asthma modeling, which were sensitized by intraperitoneal injection with 100 μg of ovalbumin (OVA) (Sigma) and 2 mg of Al(OH)3 for injection (Sigma) on days 1 and 8, and challenged by daily nasal instillation with 20 μl of 2% OVA on days 9-18. According to the purpose of the experiment, 40 μg Dex was intraperitoneally injected on days 12-18, 14-18 and 16-18, or 25,000 IU IL-2(PEG)+5 μg Bud was administered by atomization on days 16-18, respectively.
# Administration and histopathological analysis were performed in the same manner as in Example 2, and lung function test was performed in the same manner as in Example 3. […]
# asthma mice [2] = assay: Lung histopathology (H&E, PAS) of OVA asthma mice; format: in vivo, BALB/c mice; settings: same dose of the drug alone as in the combination, atomization days 12-14
# Protocol: (§2) Female BALB/c mice aged 6-8 weeks (purchased from SLAC Laboratory Animal Co., Ltd.) were used for modeling of asthma, which were sensitized by intraperitoneal injection with 100 μg of ovalbumin (OVA) (Sigma) and 2 mg of Al(OH)3 for injection (Sigma) on days 1 and 8, and challenged by daily nasal instillation with 20 μl of 2% OVA on days 9-14 (FIG. 1A).
# (§3) The asthma mice model of Example 1 were subjected to drug intervention while challenge by nasal instillation on days 12-14. The specific administration method was that the mice were anesthetized with 7% chloral hydrate (Sangon Biotech (Shanghai) Co., Ltd.) and then administrated quantitatively through atomization in the lung using an atomization metered dosing device (MicroSprayer®—Model IA-1B), and the administration volume was fixed at 25 ul/mouse, and the administration dose was adjusted by the level of concentration. On the 15th day, relevant indicators were detected.
# as §1
# [3] = tested on: Treg in bronchoalveolar lavage fluid; assay: Flow cytometry of Treg in bronchoalveolar lavage fluid of OVA asthma mice after atomization in the lung; format: in vivo, BALB/c mice; settings: same dose of the drug alone as in the combination, atomization days 12-14
# Protocol: as §2, §3
# Collection of bronchoalveolar lavage fluid. The mice were sacrificed by cervical dislocation. […] The IFN-γ, IL-4, IL-10, and IL-13 in the supernatant were measured by using commercial ELISA kit (R&D Corp).
# Flow cytometry. […] All results were analyzed by FlowJo software (Treestar).
# CTLL-2 cell = CTLL-2 cell assay of IL-2 activity; format: cell-based; settings: compared with IL-2 working standard
compound,measurement,setting,value
"C[C@@H]1C[C@H]2[C@@H]3CCC4=CC(=O)C=C[C@]4(C)[C@@]3(F)[C@@H](O)C[C@]2(C)[C@@]1(O)C(=O)CO [Dex, dexamethasone]",duration of intraperitoneal injection required to exert a therapeutic effect on asthma,asthma mice [1],at least 7 consecutive days
"IL-2: human-derived IL-2, sequence SEQ ID NO. 1 (Xiamen Amoytop Biotech Co., Ltd.)","pathological manifestations of lung inflammation, single drug alone",asthma mice [2],could not be achieved
same,"Treg in bronchoalveolar lavage fluid, single drug alone",[3],could not be achieved
"PEG-modified IL-2: IL-2 modified with a non-branched PEG of a molecular weight of 20 kD, main site N-terminus",activity,CTLL-2 cell,comparable to that of the IL-2 working standard
